Assay results published in ChEMBL document CHEMBL4414645, “Development of Robust 17(R),18(S)-Epoxyeicosatetraenoic Acid (17,18-EEQ) Analogues as Potential Clinical Antiarrhythmic Agents” (J Med Chem, 2019).
pEC50, pIC50: −log10 of the molar value.

Tests used:
Cytochrome P450 2C9 = Cytochrome P450 2C9 (Homo sapiens, UniProt P11712); test: Inhibition of human CYP2C9 by fluorescence method; format: ADME
[1] = Stability of compound in HEPES buffer assessed as parent compound remaining at 1 uM after 180 mins by LC-ESI-MS/MS analysis; format: physicochemical; settings: read-out: Stability
[2] = Negative chronotropic activity in Wistar rat neonatal cardiomyocytes assessed as decrease in basal beating rate after 7 mins by inverted microscopic method; format: functional, cell-based
[3] = Oral bioavailability in Sprague-Dawley (RjHan:SD) rat at 3 mg/kg administered via gavage by LC-MS analysis; format: ADME, organism-based; settings: in vivo
Cytochrome P450 2D6 = Cytochrome P450 2D6 (Homo sapiens, UniProt P10635); test: Inhibition of human CYP2D6 by fluorescence method; format: ADME
Chain of Cytochrome P450 2D6 (P10635 whole entry): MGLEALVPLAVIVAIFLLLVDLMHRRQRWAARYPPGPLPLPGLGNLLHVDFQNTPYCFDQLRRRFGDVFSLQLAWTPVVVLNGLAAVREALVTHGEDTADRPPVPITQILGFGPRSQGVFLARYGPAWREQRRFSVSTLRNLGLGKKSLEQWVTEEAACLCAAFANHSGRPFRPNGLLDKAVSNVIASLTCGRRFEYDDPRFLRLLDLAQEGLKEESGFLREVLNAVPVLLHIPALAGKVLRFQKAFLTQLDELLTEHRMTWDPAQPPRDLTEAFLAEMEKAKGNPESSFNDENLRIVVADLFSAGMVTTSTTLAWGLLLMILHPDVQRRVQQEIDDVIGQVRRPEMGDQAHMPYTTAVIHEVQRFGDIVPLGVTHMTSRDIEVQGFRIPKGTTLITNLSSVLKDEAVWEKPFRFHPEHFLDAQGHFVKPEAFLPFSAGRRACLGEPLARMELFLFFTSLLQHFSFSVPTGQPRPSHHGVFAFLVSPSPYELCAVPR

[4] = n-Octanol-Tris/phosphoric acid buffer buffer distribution coefficient, log D of the compound at pH 7.4 shaken for 30 mins and measured after 24 hrs by UV-HPLC method; format: physicochemical
[5] = Apparent permeability across basolateral to apical side in human Caco2 cells at 10 uM after 15 to 90 mins by LC-ESI-MS/MS analysis; format: ADME, cell-based; settings: Caco-2
[6] = Tmax in Sprague-Dawley (RjHan:SD) rat at 3 mg/kg, po administered via gavage by LC-MS analysis; format: ADME, organism-based; settings: in vivo
[7] = molecular target: T1, Bifunctional epoxide hydrolase 2 (Homo sapiens) (UniProt P34913); test: Inhibition of N-terminal His-tagged recombinant human soluble epoxide hydrolase (2 to 555 residues) expressed in Sf21 insect cells at 10 uM using as 14,15-EET as substrate after 10 mins by reversed-phase HPLC assay relative to control
T1 sequence (whole entry): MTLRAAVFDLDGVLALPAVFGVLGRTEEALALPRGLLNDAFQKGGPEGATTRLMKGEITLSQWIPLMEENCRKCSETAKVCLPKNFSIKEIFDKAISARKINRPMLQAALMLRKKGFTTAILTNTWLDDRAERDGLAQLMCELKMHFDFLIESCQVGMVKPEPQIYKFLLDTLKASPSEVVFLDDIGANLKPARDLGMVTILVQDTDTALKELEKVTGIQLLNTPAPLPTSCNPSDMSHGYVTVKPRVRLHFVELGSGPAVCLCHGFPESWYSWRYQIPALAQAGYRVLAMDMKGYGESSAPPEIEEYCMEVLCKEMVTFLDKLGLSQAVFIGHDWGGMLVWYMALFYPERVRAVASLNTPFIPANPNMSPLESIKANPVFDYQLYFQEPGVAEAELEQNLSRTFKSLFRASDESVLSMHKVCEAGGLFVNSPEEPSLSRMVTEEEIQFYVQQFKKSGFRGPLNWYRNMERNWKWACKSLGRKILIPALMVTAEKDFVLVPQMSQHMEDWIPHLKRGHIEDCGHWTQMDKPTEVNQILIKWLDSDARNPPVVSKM

[8] = molecular target: T1, Bifunctional epoxide hydrolase 2 (Homo sapiens); settings: Sf21, at 1 µM
Description: Inhibition of N-terminal His-tagged recombinant human soluble epoxide hydrolase (2 to 555 residues) expressed in Sf21 insect cells at 1 uM using as 14,15-EET as substrate after 10 mins by reversed-phase HPLC assay relative to control

[9] = Efflux ratio of apparent permeability across basolateral to apical side over apical to basolateral side in human Caco2 cells at 10 uM after 15 to 90 mins by LC-ESI-MS/MS analysis; format: ADME, cell-based; settings: Caco-2
Cytochrome P450 3A4 = Cytochrome P450 3A4 (Homo sapiens, UniProt P08684); test: Inhibition of recombinant human CYP3A4 expressed in supersomes using 7-benzyloxyquinoline as substrate by fluorescence method; format: ADME
Chain of Cytochrome P450 3A4 (P08684 whole entry): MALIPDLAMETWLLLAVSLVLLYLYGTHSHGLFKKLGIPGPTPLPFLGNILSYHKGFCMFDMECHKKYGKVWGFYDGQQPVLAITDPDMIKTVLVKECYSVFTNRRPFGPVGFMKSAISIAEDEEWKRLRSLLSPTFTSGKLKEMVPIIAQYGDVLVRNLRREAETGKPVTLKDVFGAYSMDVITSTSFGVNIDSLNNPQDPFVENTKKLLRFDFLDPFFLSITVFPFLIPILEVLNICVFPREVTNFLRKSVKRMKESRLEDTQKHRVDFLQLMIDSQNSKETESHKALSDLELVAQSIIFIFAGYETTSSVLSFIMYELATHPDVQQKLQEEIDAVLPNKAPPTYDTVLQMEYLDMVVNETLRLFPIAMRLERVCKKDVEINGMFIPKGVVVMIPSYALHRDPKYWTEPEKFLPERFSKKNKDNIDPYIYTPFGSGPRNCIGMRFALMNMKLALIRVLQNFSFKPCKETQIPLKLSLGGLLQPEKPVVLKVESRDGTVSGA

Cytochrome P450 2C19 = Cytochrome P450 2C19 (Homo sapiens, UniProt P33261); test: Inhibition of human CYP2C19 by fluorescence method; format: ADME
Chain of Cytochrome P450 2C19 (P33261 whole entry): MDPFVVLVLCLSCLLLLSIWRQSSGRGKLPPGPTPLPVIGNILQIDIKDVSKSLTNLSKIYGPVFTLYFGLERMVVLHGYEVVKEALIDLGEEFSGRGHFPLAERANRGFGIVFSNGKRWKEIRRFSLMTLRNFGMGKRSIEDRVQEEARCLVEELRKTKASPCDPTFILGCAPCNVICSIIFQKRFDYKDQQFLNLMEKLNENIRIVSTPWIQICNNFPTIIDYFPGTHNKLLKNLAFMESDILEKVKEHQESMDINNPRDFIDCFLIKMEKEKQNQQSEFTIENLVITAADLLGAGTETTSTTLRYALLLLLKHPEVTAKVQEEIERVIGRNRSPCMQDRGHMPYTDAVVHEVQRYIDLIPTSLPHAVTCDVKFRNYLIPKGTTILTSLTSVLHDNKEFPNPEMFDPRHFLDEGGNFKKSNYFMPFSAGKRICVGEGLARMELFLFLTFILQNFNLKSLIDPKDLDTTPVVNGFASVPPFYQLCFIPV

Cytochrome P450 2B6 = molecular target: T2, Cytochrome P450 2B6 (Homo sapiens, UniProt P20813); test: Inhibition of human CYP2B6 by fluorescence method; format: ADME
T2 sequence (P20813 whole entry): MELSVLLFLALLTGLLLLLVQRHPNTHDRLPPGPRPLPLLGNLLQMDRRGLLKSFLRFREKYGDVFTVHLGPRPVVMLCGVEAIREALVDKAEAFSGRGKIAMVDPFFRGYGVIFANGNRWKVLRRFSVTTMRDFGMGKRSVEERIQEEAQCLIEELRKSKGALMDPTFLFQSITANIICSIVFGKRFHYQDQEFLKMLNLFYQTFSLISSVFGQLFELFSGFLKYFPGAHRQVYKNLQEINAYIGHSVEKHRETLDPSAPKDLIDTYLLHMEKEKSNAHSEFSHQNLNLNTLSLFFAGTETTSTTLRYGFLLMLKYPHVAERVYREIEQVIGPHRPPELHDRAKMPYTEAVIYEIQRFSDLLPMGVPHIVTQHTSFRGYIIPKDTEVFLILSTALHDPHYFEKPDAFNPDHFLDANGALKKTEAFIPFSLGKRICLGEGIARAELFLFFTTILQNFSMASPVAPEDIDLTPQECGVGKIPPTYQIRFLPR

[10] = Elimination half life in Sprague-Dawley (RjHan:SD) rat at 3 mg/kg, po administered via gavage by LC-MS analysis; format: ADME, organism-based; settings: in vivo, read-out: beta t1/2 (converted)
[11] = Negative chronotropic activity in Wistar rat neonatal cardiomyocytes assessed as change in basal beating rate after 7 mins by inverted microscopic method; format: functional
Cytochrome P450 2C8 = molecular target: T3, Cytochrome P450 2C8 (Homo sapiens, UniProt P10632); test: Inhibition of human CYP2C8 by fluorescence method; format: ADME
T3 sequence (P10632 whole entry): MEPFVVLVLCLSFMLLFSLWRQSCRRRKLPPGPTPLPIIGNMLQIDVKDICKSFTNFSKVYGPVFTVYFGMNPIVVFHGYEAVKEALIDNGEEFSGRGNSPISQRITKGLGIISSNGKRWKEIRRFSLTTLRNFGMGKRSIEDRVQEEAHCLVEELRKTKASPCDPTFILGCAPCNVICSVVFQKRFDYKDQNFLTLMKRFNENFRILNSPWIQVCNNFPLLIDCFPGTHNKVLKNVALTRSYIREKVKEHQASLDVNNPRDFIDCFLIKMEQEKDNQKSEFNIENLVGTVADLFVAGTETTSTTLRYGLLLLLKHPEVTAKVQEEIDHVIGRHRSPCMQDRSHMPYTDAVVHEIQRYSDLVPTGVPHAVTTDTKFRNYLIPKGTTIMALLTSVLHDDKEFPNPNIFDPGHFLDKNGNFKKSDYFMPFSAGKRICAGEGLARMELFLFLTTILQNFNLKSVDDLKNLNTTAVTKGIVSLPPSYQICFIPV

Chain of Cytochrome P450 2C9 (P11712 whole entry): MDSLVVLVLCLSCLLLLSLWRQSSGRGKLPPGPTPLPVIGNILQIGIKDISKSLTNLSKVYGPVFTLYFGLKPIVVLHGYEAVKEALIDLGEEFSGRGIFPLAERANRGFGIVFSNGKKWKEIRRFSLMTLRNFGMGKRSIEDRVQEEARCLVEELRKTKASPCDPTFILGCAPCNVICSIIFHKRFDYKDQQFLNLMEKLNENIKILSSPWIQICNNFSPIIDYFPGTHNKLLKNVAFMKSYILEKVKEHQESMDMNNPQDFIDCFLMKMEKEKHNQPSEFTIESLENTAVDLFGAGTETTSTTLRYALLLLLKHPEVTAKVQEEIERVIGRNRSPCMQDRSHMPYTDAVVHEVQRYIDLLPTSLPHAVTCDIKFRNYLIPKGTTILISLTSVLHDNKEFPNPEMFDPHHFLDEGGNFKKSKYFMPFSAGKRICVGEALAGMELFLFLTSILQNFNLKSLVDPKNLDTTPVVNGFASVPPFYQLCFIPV

pIC50 (Cytochrome P450 2C9) | remaining at 3 h, 1 µM [1] [%] | bioavailability [3] [%] | pIC50 (Cytochrome P450 2D6) | logD [4] | Papp B→A at 10 µM [5] [×10⁻⁶ cm/s] | Tmax [6] [h] | inhibition [7] [%] | inhibition [8] [%] | efflux ratio at 10 µM [9] | pIC50 (Cytochrome P450 3A4) | pIC50 (Cytochrome P450 2C19) | pIC50 (Cytochrome P450 2B6) | half-life [10] [min] | pIC50 (Cytochrome P450 2C8) | Structure (SMILES) | pEC50 [2] | Activity [11] [bpm]
< 4.30 | 102 | 100 | < 4.30 | -0.03 | 15.8 | 1.6 | 0.8 | 0.8 | 0.6 | < 4.30 | 4.34 | < 4.30 | 576 | < 4.30 | CNC(=O)C(=O)NCCCC/C=C\CCCCCCCOCC(=O)O | 8.85 | -33.6
< 4.30 | 85.3 | – | < 4.30 | 2.01 | 2.3 | 1.6 | -8.3 | -4.1 | 0.4 | < 4.30 | < 4.30 | < 4.30 | – | < 4.30 | CNC(=O)C(=O)NCCCC/C=C\CCCCCCCCCC(=O)O | 8.24 | –
5.27 | 104 | 35 | 4.36 | 2.35 | 8 | 2 | 1.9 | -1.3 | 0.8 | 5.33 | 6.68 | < 4.30 | 216 | < 4.30 | CNC(=O)C(=O)NCCCC/C=C\CCCCCCCCCc1nnn[nH]1 | 8.94 | -30.9
